Counter-ions that a name gives are not always drawn.
Columns and labels:
[1] = system: HBV wild-type strain ayw1 in HepG2 2.2.15 cells; assay: microbe, parasite or virus in culture; assay type: cell-based; settings: Hepatitis B virus
Description: (§1) The primary anti-HBV assay is performed as previously described (Korba, B F and Milman, G. A cell culture assay for compound which inhibit hepatitis B virus replication. Antiviral Res. 1991, 15, 217-228; and Korba, B F and Gerin, J L. Use of a standardized cell culture assay to assess activities of nucleoside analogs again hepatitis B virus replication. Antiviral Res. 1992, 19, 55-70) with modifications to use real-time qPCR (TaqMan) to measure extracellular HBV DNA copy number associated with virions released from HepG2 2.2.15 cells. The HepG2 2.2.15 cell line is a stable human hepatoblastoma cell line that contains two copies of the HBV wild-type strain ayw1 genome and constitutively produces high levels of HBV. Antiviral compounds blocking any late step of viral replication such as transcription, translation, pregenome encapsidation, reverse transcription, particle assembly and release can be identified and characterized using this cell line.
Briefly, HepG2 2.2.15 cells are plated in 96-well microtiter plates at 1.5×10^4 cells/well in Dulbecco's Modified Eagle's Medium supplemented with 2% FBS, 380 μg/mL G418, 2.0 mM L-Glutamine, 100 units/mL Penicillin, 100 μg/mL Streptomycin, and 0.1 mM non-essential amino acids. Only the interior wells are utilized to reduce “edge effects” observed during cell culture; the exterior wells are filled with complete medium to help minimize sample evaporation. After 16-24 hours the confluent monolayer of HepG2 2.2.15 cells is washed and the medium is replaced with complete medium containing various concentrations of a test compound in triplicate Lamivudine (3TC) is used as the positive control, while media alone is added to cells as a negative control (virus control, VC). Three days later the culture medium is replaced with fresh medium containing the appropriately diluted test compounds. Six days following the initial administration of the test compound, the cell culture supernatant is collected, treated with pronase and then used in a real-time quantitative TaqMan qPCR assay. The PCR-amplified HBV DNA is detected in real-time by monitoring increases in fluorescent signal that result from the exonucleolytic degradation of a quenched fluorescent probe molecule that hybridizes to the amplified HBV DNA. For each PCR amplification, a standard curve is simultaneously generated using dilutions of purified HBV DNA. Antiviral activity is calculated from the reduction in HBV DNA levels (EC50 & EC90 values determined). A tetrazolium dye (MTS; 3-(4,5-dimethylthiazol-2-yl)-5-(3-carboxy-methoxyphenyl)-2-(4-sulfophenyl)-2H-tetrazolium; CellTiter®96 Reagent, Promega) uptake assay is then employed to measure cell viability, which is used to calculate toxicity (CC50). The Selectivity Index (SI50) is calculated as CC50/IC50. […]

[2] = system: HBV wild-type strain ayw1 in HepG2 2.2.15 cells; assay: Primary anti-HBV assay: extracellular HBV DNA copy number by real-time qPCR (TaqMan); assay type: cell-based, Hepatitis B virus
Description: as §1
(§2) Briefly, HepG2 2.2.15 cells are plated in 96-well microtiter plates at 1.5×10^4 cells/well in Dulbecco's Modified Eagle's Medium supplemented with 2% FBS, 380 μg/mL G418, 2.0 mM L-Glutamine, 100 units/mL Penicillin, 100 μg/mL Streptomycin, and 0.1 mM non-essential amino acids. Only the interior wells are utilized to reduce “edge effects” observed during cell culture; the exterior wells are filled with complete medium to help minimize sample evaporation. After 16-24 hours the confluent monolayer of HepG2 2.2.15 cells is washed and the medium is replaced with complete medium containing various concentrations of a test compound in triplicate Lamivudine (3TC) is used as the positive control, while media alone is added to cells as a negative control (virus control, VC). Three days later the culture medium is replaced with fresh medium containing the appropriately diluted test compounds. Six days following the initial administration of the test compound, the cell culture supernatant is collected, treated with pronase and then used in a real-time quantitative TaqMan qPCR assay. The PCR-amplified HBV DNA is detected in real-time by monitoring increases in fluorescent signal that result from the exonucleolytic degradation of a quenched fluorescent probe molecule that hybridizes to the amplified HBV DNA. For each PCR amplification, a standard curve is simultaneously generated using dilutions of purified HBV DNA. Antiviral activity is calculated from the reduction in HBV DNA levels (EC50 & EC90 values determined). A tetrazolium dye (MTS; 3-(4,5-dimethylthiazol-2-yl)-5-(3-carboxy-methoxyphenyl)-2-(4-sulfophenyl)-2H-tetrazolium; CellTiter®96 Reagent, Promega) uptake assay is then employed to measure cell viability, which is used to calculate toxicity (CC50). The Selectivity Index (SI50) is calculated as CC50/IC50.

[3] = MTS tetrazolium dye uptake cell viability assay (primary assay); assay type: cell-based, human; settings: human, HepG2 2.2.15 cells
Description: as §2

HIV-1 = settings: cited from earlier work
[4] = read-out: CC50 (cellular cytotoxicity); cited from earlier work
HIV-2 = settings: cited from earlier work
in vitro = assay type: cell-based; settings: human; HepG2 2.2.15 cells, secondary assay
Description: Briefly, HepG2 2.2.15 cells are plated in 96-well microtiter plates at 1.5×10^4 cells/well in Dulbecco's Modified Eagle's Medium supplemented with 2% FBS, 380 μg/mL G418, 2.0 mM L-Glutamine, 100 units/mL Penicillin, 100 μg/mL Streptomycin, and 0.1 mM non-essential amino acids. Only the interior wells are utilized to reduce “edge effects” observed during cell culture; the exterior wells are filled with complete medium to help minimize sample evaporation. After 16-24 hours the confluent monolayer of HepG2 2.2.15 cells is washed and the medium is replaced with complete medium containing various concentrations of a test compound in triplicate Lamivudine (3TC) is used as the positive control, while media alone is added to cells as a negative control (virus control, VC). […] Six days following the initial administration of the test compound, the cell culture supernatant is collected, treated with pronase and then used in a real-time quantitative TaqMan qPCR assay. The PCR-amplified HBV DNA is detected in real-time by monitoring increases in fluorescent signal that result from the exonucleolytic degradation of a quenched fluorescent probe molecule that hybridizes to the amplified HBV DNA. […] Antiviral activity is calculated from the reduction in HBV DNA levels (EC50 & EC90 values determined). […] The Selectivity Index (SI50) is calculated as CC50/IC50. […]

HepG2 2.2.15 cells = assay: MTS tetrazolium dye uptake cell viability assay (primary assay); assay type: cell-based, human
Description: as §2

[5] = Hepatitis B virus, 144 h, reduction in extracellular HBV DNA, HepG2 2.2.15 cells, six days, read-out: EC50
[6] = Hepatitis B virus, 144 h, reduction in extracellular HBV DNA, HepG2 2.2.15 cells, six days, read-out: EC90
[7] = Hepatitis B virus, HepG2 2.2.15, 144 h

| SMILES | EC50 [2, 5] [µM] | EC90 [2, 6] [µM] | CC50 at 6 days [3] [µM] | EC50 [2, 7] [µM] | EC90 [2, 7] [µM] | further results |
| --- | --- | --- | --- | --- | --- | --- |
| Nc1ccn([C@@H]2CS[C@H](CO)O2)c(=O)n1 [3TC (Lamivudine), Lamivudine, reference compound] | 0.03 | > 2 | > 2 |  |  | EC50 ([1]; reduction in intracellular HBV DNA, HepG2 2.2.15 cells, read-out: EC50): < 0.01 µM; EC90 ([1]; reduction in intracellular HBV DNA, HepG2 2.2.15 cells, read-out: EC90): > 2 µM |
| Nc1ncnc2c1ncn2[C@H]1C[C@@H](OCP(=O)(O)O)CO1 [PMDTA, 1′α-(Adenin-9-yl)-2′-deoxy-3′-O-phosphonomethyl-L-threose triethylammonium salt, reference compound] | 0.5 | > 100 | > 100 |  |  | EC50 (HIV-1; read-out: EC50 value against HIV-1): 2.53 µM; CC50 [4]: > 316 µM; EC50 (HIV-2; read-out: EC50 value against HIV-2): 2.53 µM |
| Cc1cn([C@H]2C[C@@H](OCP(=O)(O)O)CO2)c(=O)[nH]c1=O [PMDTT, 1′α-(Thymin-1-yl)-2′-deoxy-3′-O-phosphonomethyl-L-threose triethylammonium salt, reference compound] | 40.2 | > 100 | > 100 |  |  | IC50 (HIV-1; read-out: IC50 value against HIV-1): 6.59 µM; CC50 [4]: > 343 µM; IC50 (HIV-2; read-out: IC50 value against HIV-2): 6.59 µM |
| CC(C)OC(=O)[C@H](C)NP(=O)(CO[C@H]1CO[C@@H](n2cnc3c(N)ncnc32)C1)Oc1ccccc1 (some centres unmarked) [compound 17] |  |  | > 10 | 0.03 | > 10 |  |
| CC(C)CCOC(=O)C[C@H](NP(=O)(CO[C@H]1CO[C@@H](n2cnc3c(N)ncnc32)C1)Oc1ccccc1)C(=O)OCCC(C)C (some centres unmarked) [compound 18] |  |  | 55.5 | 0.01 | 0.98 | EC50 ([1]; HepG2 2.2.15): < 0.01 µM; EC90 ([1]; HepG2 2.2.15): 0.36 µM; CC50 at 6 days (in vitro): 35.2 µM |
| Cc1cn([C@H]2C[C@@H](OCP(=O)(N[C@@H](C)C(=O)OC(C)C)Oc3ccccc3)CO2)c(=O)[nH]c1=O (some centres unmarked) [compound 20] |  |  | > 100 | 0.26 | > 10 |  |
| Cc1cn([C@H]2C[C@@H](OCP(=O)(N[C@@H](CC(=O)OCCC(C)C)C(=O)OCCC(C)C)Oc3ccccc3)CO2)c(=O)[nH]c1=O (some centres unmarked) [compound 21] |  |  | 59.6 | 0.25 | > 10 |  |
| CC(C)OC(=O)[C@H](C)NP(=O)(CO[C@H]1CO[C@@H](n2ccc(N)nc2=O)C1)Oc1ccccc1 (stereo partly drawn) [compound 32, 1′α-(Cytosin-1-yl)-2′-deoxy-3′-O—{[N-(isopropyl-L-alaninate)](phenoxy)-methylphosphonoamidate}-L-threose] |  |  | > 100 | 47.9 | > 100 |  |
| CCCOC(=O)[C@H](Cc1ccccc1)NP(=O)(CO[C@H]1CO[C@@H](n2cnc3c(=O)[nH]c(N)nc32)C1)N[C@@H](Cc1ccccc1)C(=O)OCCC [compound 39] | > 100 | > 100 | > 100 |  |  |  |
| CC(C)OC(=O)[C@H](C)NP(=O)(CO[C@H]1CO[C@@H](n2cnc3c(=O)[nH]c(N)nc32)C1)Oc1ccccc1 (some centres unmarked) [compound 40] |  |  | > 100 | > 100 | > 100 |  |
| CC(C)OC(=O)[C@H](C)NP(=O)(COC1COC(n2cnc3c(=O)[nH]c(N)nc32)C1)Oc1ccccc1 (stereo partly drawn) [compound 41, 1′α-(Guanin-9-yl)-2′-deoxy-3′-O—{[N-(isopropyl-L-alaninate)](phenoxy)-methylphosphonoamidate}-L-threose] |  |  |  |  |  | EC50 ([2]; reduction in extracellular HBV DNA, HepG2 2.2.15 cells, six days, read-out: EC50): > 100 µM; EC90 ([2]; reduction in extracellular HBV DNA, HepG2 2.2.15 cells, six days, read-out: EC90): > 100 µM; CC50 (HepG2 2.2.15 cells): > 100 µM |
